Values quoted from earlier work, collected in US20120237456A1, “ORAL COMPOSITIONS CONTAINING EXTRACTS OF GARCINIA MANGOSTANA L. AND RELATED METHODS” (Colgate-Palmolive Company, priority 2009, published 2012).

Legend:
cAMP phosphodiesterase = conditions: reported by Chairungsrilerd and Takeuchi et al., 1996
[1] = compared with BHA and a-tocopherol (vitamin E); Yoshikawa et al., 1994; Fan and Su, 1997
DNA topoisomerase = conditions: Tosa et al., 1997
COX 1 = COX 1 (Homo sapiens, UniProt P23219); conditions: Nakatani et al., 2002 and 2004
serotonin receptors = conditions: Chairungsrilerd, Furukawa et al., 1996 and 1998

Sequence of COX 1 (P23219 24-599): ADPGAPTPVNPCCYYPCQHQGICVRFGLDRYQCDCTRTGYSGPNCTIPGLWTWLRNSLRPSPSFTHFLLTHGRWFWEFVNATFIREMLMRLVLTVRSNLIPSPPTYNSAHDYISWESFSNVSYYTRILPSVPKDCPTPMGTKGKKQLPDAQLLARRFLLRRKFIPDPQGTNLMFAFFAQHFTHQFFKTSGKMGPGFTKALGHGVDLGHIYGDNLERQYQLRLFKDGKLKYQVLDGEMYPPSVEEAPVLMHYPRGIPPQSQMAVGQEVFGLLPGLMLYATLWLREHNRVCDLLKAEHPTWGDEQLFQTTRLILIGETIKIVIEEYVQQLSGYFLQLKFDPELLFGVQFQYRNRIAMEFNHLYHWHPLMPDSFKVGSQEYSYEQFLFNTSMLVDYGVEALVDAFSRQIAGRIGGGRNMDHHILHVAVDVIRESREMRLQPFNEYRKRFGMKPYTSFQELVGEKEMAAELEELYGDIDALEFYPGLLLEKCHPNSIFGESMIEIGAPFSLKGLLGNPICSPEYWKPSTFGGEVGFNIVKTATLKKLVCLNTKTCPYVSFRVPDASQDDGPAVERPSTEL

| SMILES | inhibition of cAMP phosphodiesterase (cAMP phosphodiesterase) | antioxidative activity [1] | inhibition of DNA topoisomerase (DNA topoisomerase) | inhibition of the activity of cyclooxygenase COX 1 (COX 1) | antagonism of serotonin receptors (serotonin receptors) |
| --- | --- | --- | --- | --- | --- |
| COc1c(O)cc2oc3cc4c(c(O)c3c(=O)c2c1CC=C(C)C)CC(O)C(C)(C)O4 (centres unmarked) [Mangostanol] | strong inhibition | – | – | – | – |
| CC(C)=CCc1c(O)cc2oc3cc(O)c(O)c(CC=C(C)C)c3c(=O)c2c1O [γ-mangostin] | – | more potent antioxidative activity than BHA | inhibit | directly inhibit | antagonist |
